Reference: PMC12281424, “A Rac-specific competitive inhibitor of guanine nucleotide binding reduces metastasis in triple-negative breast cancer” (Cell Reports Medicine, 2025)
Where “and” joins values, the source holds several entries; their conditions need not be identical. Identical values can stand only once.

Assays:
TA98 = assay: Bacterial cytotoxicity; type: cell-based
Description: Data S2. Bacterial cytotoxicity of A41.
Test Concentration %Effect Cytotoxicity (% of control)

[1] = test system: Protein Ser/Thr Kinase, PKC, Non- Selective; assay: Safety screen; type: biochemical, rat
Description: (§1) The kinase profiler was performed by the company Eurofins (Discovery, Panlab and Cerep).

Bradykinin B2 = Bradykinin B2 (Homo sapiens, UniProt P30411); assay: Safety screen; type: binding
Description: (§2) Blood cell counts, kinase profiler, safety screen, bacterial cytotoxicity, Ames, micronucleus assays were performed by the company Eurofins (France). The kinase profiler was performed by the company Eurofins (Discovery, Panlab and Cerep).

Opiate δ1 (OP1, DOP) = Opiate δ1 (OP1, DOP) (Homo sapiens, UniProt P41143); assay: Safety screen; type: binding
Description: Blood cell counts, kinase profiler, safety screen, bacterial cytotoxicity, Ames, micronucleus assays were performed by the company Eurofins (France).

Progesterone PR-B = Progesterone PR-B (Homo sapiens, UniProt P06401); assay: Safety screen; type: binding
Description: as §2

[2] = target: Serotonin (5-Hydroxytryptamine) 5-HT1B (Homo sapiens, UniProt P28222); assay: Safety screen; type: binding
Description: as §2

AMPKα2(h) = AMPKα2(h) (Homo sapiens, UniProt P54646); assay: Kinase Profiler; type: biochemical
Description: as §2

Arg(m) = Arg(m) (Mus musculus, UniProt Q4JIM5); assay: Kinase Profiler; type: biochemical
Chain of Arg(m) (Q4JIM5 2-1182 limits assumed): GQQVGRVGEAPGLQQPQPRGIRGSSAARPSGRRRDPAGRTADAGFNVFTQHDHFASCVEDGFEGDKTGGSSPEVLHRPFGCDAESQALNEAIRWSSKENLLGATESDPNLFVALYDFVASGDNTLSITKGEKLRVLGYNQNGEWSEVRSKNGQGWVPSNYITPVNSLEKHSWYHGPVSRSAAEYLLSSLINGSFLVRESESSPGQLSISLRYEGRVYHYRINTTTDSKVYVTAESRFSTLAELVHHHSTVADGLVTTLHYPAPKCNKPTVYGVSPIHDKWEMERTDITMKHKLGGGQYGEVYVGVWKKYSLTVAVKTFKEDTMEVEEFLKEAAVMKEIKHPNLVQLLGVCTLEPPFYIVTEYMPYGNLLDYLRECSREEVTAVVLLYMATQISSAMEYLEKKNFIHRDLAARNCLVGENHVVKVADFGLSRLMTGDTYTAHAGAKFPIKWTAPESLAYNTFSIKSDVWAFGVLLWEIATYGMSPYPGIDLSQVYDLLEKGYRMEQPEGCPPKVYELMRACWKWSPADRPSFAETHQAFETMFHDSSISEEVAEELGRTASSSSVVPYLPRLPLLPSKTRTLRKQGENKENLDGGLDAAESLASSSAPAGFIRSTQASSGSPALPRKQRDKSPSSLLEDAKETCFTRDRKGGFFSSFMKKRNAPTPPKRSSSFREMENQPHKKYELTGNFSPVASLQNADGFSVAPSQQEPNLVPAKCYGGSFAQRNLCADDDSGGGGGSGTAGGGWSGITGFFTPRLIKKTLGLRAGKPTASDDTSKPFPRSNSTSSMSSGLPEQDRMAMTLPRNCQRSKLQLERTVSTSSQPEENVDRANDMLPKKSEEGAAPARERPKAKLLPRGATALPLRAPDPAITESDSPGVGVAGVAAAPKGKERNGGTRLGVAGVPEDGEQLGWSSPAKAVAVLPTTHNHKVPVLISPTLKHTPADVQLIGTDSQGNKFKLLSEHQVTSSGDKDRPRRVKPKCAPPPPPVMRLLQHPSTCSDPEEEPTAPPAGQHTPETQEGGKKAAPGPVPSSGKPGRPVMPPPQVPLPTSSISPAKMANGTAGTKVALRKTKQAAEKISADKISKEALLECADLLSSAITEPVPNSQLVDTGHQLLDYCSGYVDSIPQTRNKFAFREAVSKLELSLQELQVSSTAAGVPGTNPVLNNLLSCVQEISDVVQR
Description: as §2

BTK(R28H)(h) = BTK(R28H)(h) (Homo sapiens, UniProt Q06187, R28H); assay: Kinase Profiler; type: biochemical
Description: as §2

CDK2/cyclinE(h) = CDK2/cyclinE(h) (Homo sapiens, UniProt P24941); assay: Kinase Profiler; type: biochemical
Description: as §2

CLIK1(h) = CLIK1(h) (Homo sapiens, UniProt Q8TDR2); assay: Kinase Profiler; type: biochemical
Chain of CLIK1(h) (Q8TDR2 whole entry): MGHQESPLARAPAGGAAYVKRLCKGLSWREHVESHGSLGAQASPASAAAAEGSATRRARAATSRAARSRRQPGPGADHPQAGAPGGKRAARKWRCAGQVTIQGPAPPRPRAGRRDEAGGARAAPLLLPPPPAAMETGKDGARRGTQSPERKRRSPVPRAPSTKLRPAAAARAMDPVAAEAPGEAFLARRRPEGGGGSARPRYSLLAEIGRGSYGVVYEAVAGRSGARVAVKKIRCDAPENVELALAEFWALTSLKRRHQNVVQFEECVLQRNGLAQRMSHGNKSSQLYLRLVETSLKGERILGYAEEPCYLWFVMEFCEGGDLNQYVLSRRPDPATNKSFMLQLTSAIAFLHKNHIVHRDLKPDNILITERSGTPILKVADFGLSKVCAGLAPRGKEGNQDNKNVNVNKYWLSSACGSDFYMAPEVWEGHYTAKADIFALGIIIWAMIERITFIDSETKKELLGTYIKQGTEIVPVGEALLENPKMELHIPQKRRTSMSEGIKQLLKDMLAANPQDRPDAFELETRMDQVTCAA
Description: as §1

cSRC(h) = cSRC(h) (Homo sapiens, UniProt P12931); assay: Kinase Profiler; type: biochemical
Description: as §1

DYRK1A(h) = DYRK1A(h) (Homo sapiens, UniProt Q13627); assay: Kinase Profiler; type: biochemical
Description: as §2

Hck(h) activated = Hck(h) activated (Homo sapiens, UniProt P08631); assay: Kinase Profiler; type: biochemical
Chain of Hck(h) activated (P08631 whole entry): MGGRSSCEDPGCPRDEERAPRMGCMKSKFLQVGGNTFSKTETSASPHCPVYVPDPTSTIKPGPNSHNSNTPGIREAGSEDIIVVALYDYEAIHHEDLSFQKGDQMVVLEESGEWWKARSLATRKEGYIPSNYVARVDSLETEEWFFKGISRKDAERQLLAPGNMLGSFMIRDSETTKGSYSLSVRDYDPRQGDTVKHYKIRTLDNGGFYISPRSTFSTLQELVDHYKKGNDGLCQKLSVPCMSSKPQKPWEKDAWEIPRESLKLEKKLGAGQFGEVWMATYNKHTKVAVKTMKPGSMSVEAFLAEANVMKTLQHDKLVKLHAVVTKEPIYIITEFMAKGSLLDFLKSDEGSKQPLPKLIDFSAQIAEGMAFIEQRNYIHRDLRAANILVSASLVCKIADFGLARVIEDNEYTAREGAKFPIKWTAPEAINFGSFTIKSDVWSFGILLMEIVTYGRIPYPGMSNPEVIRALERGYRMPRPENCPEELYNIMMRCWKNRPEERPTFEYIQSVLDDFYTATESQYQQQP
Description: as §1

JNK3(h) = JNK3(h) (Homo sapiens, UniProt P53779); assay: Kinase Profiler; type: biochemical
Description: as §1

MEKK2(h) = MEKK2(h) (Homo sapiens, UniProt Q9Y2U5); assay: Kinase Profiler; type: biochemical
Chain of MEKK2(h) (Q9Y2U5 whole entry): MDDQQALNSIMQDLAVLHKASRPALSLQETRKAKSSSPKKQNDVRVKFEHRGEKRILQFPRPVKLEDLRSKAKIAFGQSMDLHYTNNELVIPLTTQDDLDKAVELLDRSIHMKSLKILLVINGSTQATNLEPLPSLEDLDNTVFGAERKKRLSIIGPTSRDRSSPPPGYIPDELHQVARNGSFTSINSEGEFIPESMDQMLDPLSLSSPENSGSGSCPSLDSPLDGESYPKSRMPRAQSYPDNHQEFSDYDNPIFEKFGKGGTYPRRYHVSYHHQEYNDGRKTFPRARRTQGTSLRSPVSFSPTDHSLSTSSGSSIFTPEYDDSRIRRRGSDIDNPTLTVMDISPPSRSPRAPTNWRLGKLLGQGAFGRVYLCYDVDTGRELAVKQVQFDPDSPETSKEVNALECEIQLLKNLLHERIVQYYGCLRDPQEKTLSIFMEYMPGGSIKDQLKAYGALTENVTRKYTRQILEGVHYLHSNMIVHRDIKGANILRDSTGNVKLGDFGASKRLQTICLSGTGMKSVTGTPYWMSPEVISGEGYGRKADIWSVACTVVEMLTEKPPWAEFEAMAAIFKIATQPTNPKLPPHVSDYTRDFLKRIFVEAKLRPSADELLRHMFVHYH
Description: as §1

Met(M1268T)(h) = Met(M1268T)(h) (Homo sapiens, UniProt P08581, M1250T); assay: Kinase Profiler; type: biochemical
Description: as §1

MuSK(h) = MuSK(h) (Homo sapiens, UniProt O15146); assay: Kinase Profiler; type: biochemical
Description: as §1

NLK(h) = NLK(h) (Homo sapiens, UniProt Q9UBE8); assay: Kinase Profiler; type: biochemical
Description: as §1

NUAK2(h) = NUAK2(h) (Homo sapiens, UniProt Q9H093); assay: Kinase Profiler; type: biochemical
Description: as §1

PhKγ1(h) = PhKγ1(h) (Homo sapiens, UniProt Q16816); assay: Kinase Profiler; type: biochemical
Description: as §2

PKAcβ(h) = PKAcβ(h) (Homo sapiens, UniProt P22694); assay: Kinase Profiler; type: biochemical
Description: as §2

ROCK-I(h) = ROCK-I(h) (Homo sapiens, UniProt Q13464); assay: Kinase Profiler; type: biochemical
Description: as §2

TSSK2(h) = TSSK2(h) (Homo sapiens, UniProt Q96PF2); assay: Kinase Profiler; type: biochemical
Chain of TSSK2(h) (Q96PF2 whole entry): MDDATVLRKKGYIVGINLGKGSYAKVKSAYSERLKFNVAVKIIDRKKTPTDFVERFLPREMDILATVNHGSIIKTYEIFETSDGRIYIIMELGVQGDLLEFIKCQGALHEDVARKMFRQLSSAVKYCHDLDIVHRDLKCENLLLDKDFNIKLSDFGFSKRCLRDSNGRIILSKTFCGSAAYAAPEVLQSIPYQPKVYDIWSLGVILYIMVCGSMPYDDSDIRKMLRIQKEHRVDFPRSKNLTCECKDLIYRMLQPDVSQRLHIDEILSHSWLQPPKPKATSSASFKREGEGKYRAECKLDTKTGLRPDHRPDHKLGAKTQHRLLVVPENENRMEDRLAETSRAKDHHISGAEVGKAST
Description: as §1

ZAP-70(h) = ZAP-70(h) (Homo sapiens, UniProt P43403); assay: Kinase Profiler; type: biochemical
Description: as §1

PI3K (p110a/p85a)(m) = PI3K (p110a/p85a)(m) (Mus musculus, UniProt P42337); assay: Kinase Profiler; type: biochemical
Chain of PI3K (p110a/p85a)(m) (P42337 whole entry): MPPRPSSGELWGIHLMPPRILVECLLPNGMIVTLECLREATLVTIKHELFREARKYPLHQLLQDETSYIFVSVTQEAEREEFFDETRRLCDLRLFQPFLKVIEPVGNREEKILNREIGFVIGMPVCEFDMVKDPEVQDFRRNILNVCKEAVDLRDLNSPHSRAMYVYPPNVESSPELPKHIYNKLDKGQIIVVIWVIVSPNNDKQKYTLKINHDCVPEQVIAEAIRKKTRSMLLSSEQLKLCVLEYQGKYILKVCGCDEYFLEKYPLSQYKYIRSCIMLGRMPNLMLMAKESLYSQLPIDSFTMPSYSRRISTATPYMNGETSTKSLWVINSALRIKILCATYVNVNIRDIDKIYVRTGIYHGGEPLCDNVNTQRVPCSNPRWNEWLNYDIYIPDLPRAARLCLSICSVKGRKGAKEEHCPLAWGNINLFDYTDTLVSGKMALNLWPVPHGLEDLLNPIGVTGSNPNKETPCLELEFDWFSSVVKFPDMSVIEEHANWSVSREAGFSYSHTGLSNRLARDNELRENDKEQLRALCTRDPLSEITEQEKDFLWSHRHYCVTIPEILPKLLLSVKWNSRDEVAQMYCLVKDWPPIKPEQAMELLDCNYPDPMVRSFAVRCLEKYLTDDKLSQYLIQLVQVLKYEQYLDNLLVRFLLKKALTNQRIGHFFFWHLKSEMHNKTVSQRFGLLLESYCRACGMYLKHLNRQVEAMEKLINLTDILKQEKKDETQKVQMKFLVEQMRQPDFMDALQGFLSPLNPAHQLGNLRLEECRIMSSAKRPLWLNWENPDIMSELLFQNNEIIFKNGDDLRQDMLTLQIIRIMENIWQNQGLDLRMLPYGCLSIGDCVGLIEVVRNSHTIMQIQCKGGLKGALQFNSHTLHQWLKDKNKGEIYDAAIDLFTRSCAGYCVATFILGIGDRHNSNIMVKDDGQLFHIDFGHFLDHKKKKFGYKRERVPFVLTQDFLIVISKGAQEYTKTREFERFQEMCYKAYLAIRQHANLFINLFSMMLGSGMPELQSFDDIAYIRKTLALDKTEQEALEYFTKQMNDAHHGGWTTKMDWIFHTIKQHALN
Chain of PI3K (p110a/p85a)(m) (P26450 2-724 partner): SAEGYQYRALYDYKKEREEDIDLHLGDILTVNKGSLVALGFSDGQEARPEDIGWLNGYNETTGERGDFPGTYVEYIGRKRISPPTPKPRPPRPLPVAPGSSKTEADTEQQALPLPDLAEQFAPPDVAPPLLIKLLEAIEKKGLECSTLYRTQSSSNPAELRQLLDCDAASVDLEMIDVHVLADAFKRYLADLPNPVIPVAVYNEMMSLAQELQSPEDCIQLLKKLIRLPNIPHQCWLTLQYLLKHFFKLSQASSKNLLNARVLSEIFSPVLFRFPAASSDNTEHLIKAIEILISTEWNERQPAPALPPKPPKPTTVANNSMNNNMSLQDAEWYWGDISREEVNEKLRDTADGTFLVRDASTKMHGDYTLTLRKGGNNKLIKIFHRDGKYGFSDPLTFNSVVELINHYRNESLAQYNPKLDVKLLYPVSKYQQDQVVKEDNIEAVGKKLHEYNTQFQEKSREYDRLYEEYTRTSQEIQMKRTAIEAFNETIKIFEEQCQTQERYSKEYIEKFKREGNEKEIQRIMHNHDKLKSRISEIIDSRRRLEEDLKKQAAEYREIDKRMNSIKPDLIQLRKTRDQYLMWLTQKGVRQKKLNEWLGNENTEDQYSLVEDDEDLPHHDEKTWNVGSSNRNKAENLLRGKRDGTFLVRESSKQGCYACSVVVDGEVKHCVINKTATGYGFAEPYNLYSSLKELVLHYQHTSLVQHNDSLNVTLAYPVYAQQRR
Description: as §2

SMILES: COc1ccc(OC)c(NS(=O)(=O)c2ccc(NC(=O)CCSc3ccc(C)cc3)cc2)c1 [Compound A41]
- %Effect, single replicates (1st, 2nd, 3rd) (TA98; - S9, 1.0E-04 M): 154.6% and 177.5% and 143.7%
- Cytotoxicity (% of control), Mean %Effect (TA98; - S9, 1.0E-04 M): 158.6%
- %Effect, single replicates (1st, 2nd, 3rd) (TA98; - S9, 1.0E-05 M): 82.4% and 76.9% and 77.8%
- Cytotoxicity (% of control), Mean %Effect (TA98; - S9, 1.0E-05 M): 79.0%
- %Effect, single replicates (1st, 2nd, 3rd) (TA98; - S9, 1.2E-06 M): 89.7% and 74.1% and 55.8%
- Cytotoxicity (% of control), Mean %Effect (TA98; - S9, 1.2E-06 M): 73.2%
- %Effect, single replicates (1st, 2nd, 3rd) (TA98; - S9, 2.5E-05 M): 95.2% and 92.4% and 83.3%
- Cytotoxicity (% of control), Mean %Effect (TA98; - S9, 2.5E-05 M): 90.3%
- %Effect, single replicates (1st, 2nd, 3rd) (TA98; - S9, 2.5E-06 M): 80.5% and 83.3% and 82.4%
- Cytotoxicity (% of control), Mean %Effect (TA98; - S9, 2.5E-06 M): 82.0%
- %Effect, single replicates (1st, 2nd, 3rd) (TA98; - S9, 5.0E-05 M): 88.8% and 83.3% and 75.9%
- Cytotoxicity (% of control), Mean %Effect (TA98; - S9, 5.0E-05 M): 82.7%
- %Effect, single replicates (1st, 2nd, 3rd) (TA98; - S9, 5.0E-06 M): 88.8% and 84.2% and 81.4%
- Cytotoxicity (% of control), Mean %Effect (TA98; - S9, 5.0E-06 M): 84.8%
- %Effect, single replicates (1st, 2nd, 3rd) (TA98; - S9, 6.0E-07 M): 92.4% and 82.4% (2×)
- Cytotoxicity (% of control), Mean %Effect (TA98; - S9, 6.0E-07 M): 85.7%
- % inh. [1]: 48%
- % inh. (Bradykinin B2): 1%
- % inh. (Opiate δ1 (OP1, DOP)): 6%
- % inh. (Progesterone PR-B): -16%
- % inh. [2]: 15%
- Activity(%) (AMPKα2(h)): 111%
- Activity(%) (Arg(m)): 109%
- Activity(%) (BTK(R28H)(h)): 102%
- Activity(%) (CDK2/cyclinE(h)): 100%
- Activity(%) (CLIK1(h)): 112%
- Activity(%) (cSRC(h)): 111%
- Activity(%) (DYRK1A(h)): 93%
- Activity(%) (Hck(h) activated): 102%
- Activity(%) (JNK3(h)): 123%
- Activity(%) (MEKK2(h)): 102%
- Activity(%) (Met(M1268T)(h)): 108%
- Activity(%) (MuSK(h)): 112%
- Activity(%) (NLK(h)): 99%
- Activity(%) (NUAK2(h)): 110%
- Activity(%) (PhKγ1(h)): 102%
- Activity(%) (PKAcβ(h)): 116%
- Activity(%) (ROCK-I(h)): 101%
- Activity(%) (TSSK2(h)): 111%
- Activity(%) (ZAP-70(h)): 108%
- Activity(%) (PI3K (p110a/p85a)(m)): 102%
